Assay [1] deals with thrombin (Homo sapiens, UniProt P00734). Put plainly: Thrombin-inhibitory activity of the potential inhibitors in plasma samples. In kind it is biochemical. To be noted: citrate plasma (Octapharma); ecarin stimulation; fluorogenic thrombin substrate, 360/465 nm. The method, then:
a.5) Determination of the Thrombin-Inhibitory Activity of the Potential Inhibitors in Plasma Samples
Various concentrations of the substances to be tested are dissolved in dimethyl sulfoxide and diluted with water.

Assay [2] addresses T1, factor Xa (Homo sapiens, UniProt P00742).
T1 construct: tissue Octapharma; host or cells: citrate plasma
Put plainly: Factor Xa-inhibitory activity of the potential inhibitors in plasma samples. In kind it is biochemical. To be noted: citrate plasma (Octapharma); factor X activated by rattlesnake toxin (RVV); ChromozymX chromogenic substrate, 405 nm. The method, then:
a.4) Determination of the Factor Xa-Inhibitory Activity of the Potential Inhibitors in Plasma Samples
To determine the inhibition of factor Xa in plasma samples, the factor X present in plasma is activated by a protease from rattlesnake toxin. The factor Xa activity or its inhibition by potential inhibitors is then measured by addition of a chromogenic substrate.
Various concentrations of the substances to be tested are dissolved in dimethyl sulfoxide and diluted with an aqueous refludan solution (10 μg/ml). In clear 96-well plates having a flat bottom, 30 μl of citrate plasma (Octapharma) are mixed with 10 μl of the substance dilution. Then, either 20 μl of a solution of a rattlesnake toxin (Russel viper venom (RVV); RVV reagent: Pentapharm 121-06, final concentration 0.6 mU) in an aqueous calcium chloride solution buffer (final concentration of calcium chloride 0.05 M) or 20 μl of the aqueous calcium chloride solution (final concentration of calcium chloride 0.05 M) without RVV reagent (as reference for an unstimulated sample) are added. After addition of 20 μl of ChromozymX substrate (final concentration 1.6 mmol/l, Bachem L-1565, diluted in water) the samples are measured in a SpectraFluor Reader using a measurement filter of 405 nm each minute over a period of 20 minutes. The IC50 value is determined when about 70% of the maximum signal is reached (about 12 min).

T1 sequence (P00742 235-488 limits assumed): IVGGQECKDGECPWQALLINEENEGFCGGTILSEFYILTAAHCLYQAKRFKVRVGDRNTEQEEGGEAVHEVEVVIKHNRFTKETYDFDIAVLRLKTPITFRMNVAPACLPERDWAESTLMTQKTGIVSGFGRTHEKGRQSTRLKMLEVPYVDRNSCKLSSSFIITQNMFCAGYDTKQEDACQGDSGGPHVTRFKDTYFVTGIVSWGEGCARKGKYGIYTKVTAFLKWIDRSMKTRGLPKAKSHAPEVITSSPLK
T1 sequence (P00742 41-179 limits assumed): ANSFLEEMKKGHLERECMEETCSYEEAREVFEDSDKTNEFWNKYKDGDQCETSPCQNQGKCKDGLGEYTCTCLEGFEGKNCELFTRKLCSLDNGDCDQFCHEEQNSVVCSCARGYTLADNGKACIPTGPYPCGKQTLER

For orientation: IC50 means the concentration that gives 50% inhibition. Lower therefore signals greater potency. For `O=C(NC[C@H]1CN(c2ccc(N3CCOCCC3=O)c(C3CC3)c2)C(=O)O1)c1ccc(Cl)s1` [Example 30, 5-Chloro-N-({(5S)-3-[3-cyclopropyl-4-(5-oxo-1,4-oxazepan-4-yl)phenyl]-2-oxo-1,3-oxazolidin-5-yl}methyl)thiophene-2-carboxamide], the values for the IC50 in assay [1] and in assay [2] were 0.034 µM and 0.025 µM, respectively. As to `Cc1cc(N2C[C@H](CNC(=O)c3ccc(Cl)s3)OC2=O)cc(C)c1-n1cccc(OCCO)c1=O` [Example 16, 5-Chloro-N-{[(5S)-3-{4-[3-(2-hydroxyethoxy)-2-oxopyridin-1(2H)-yl]-3,5-dimethylphenyl}-2-oxo-1,3-oxazolidin-5-yl]methyl}thiophene-2-carboxamide], the values for the IC50 in assay [1] and in assay [2] were 0.014 µM and 0.213 µM, respectively. The corresponding values for `CCOc1nccn(-c2ccc(N3C[C@H](CNC(=O)c4ccc(Cl)s4)OC3=O)cc2C)c1=O` [Example 18, 5-Chloro-N-({(5S)-3-[4-(3-ethoxy-2-oxopyrazin-1(2H)-yl)-3-methylphenyl]-2-oxo-1,3-oxazolidin-5-yl}methyl)thiophene-2-carboxamide] are 0.502 µM and 0.319 µM. `O=C(NC[C@H]1CN(c2ccc(N3CCCN(CCO)C3=O)c(C(F)(F)F)c2)C(=O)O1)c1ccc(Cl)s1` [Example 38, 5-Chloro-N-{[(5S)-3-{4-[3-(2-hydroxyethyl)-2-oxotetrahydropyrimidin-1(2H)-yl]-3-(trifluoro-methyl)phenyl}-2-oxo-1,3-oxazolidin-5-yl]methyl}thiophene-2-carboxamide] had an IC50 in assay [2] of 0.252 µM.

In the case of `COc1cc(N2C[C@H](CNC(=O)c3ccc(Cl)s3)OC2=O)ccc1N1CCCN(C)C1=O` [Example 35, 5-Chloro-N-({(5S)-3-[3-methoxy-4-(3-methyl-2-oxotetrahydropyrimidin-1(2H)-yl)phenyl]-2-oxo-1,3-oxazolidin-5-yl}methyl)thiophene-2-carboxamide], the IC50 was 0.39 µM in assay [1] and 0.552 µM in assay [2]. The corresponding values for `CC(C)c1cc(N2C[C@H](CNC(=O)c3ccc(Cl)s3)OC2=O)ccc1N1CCCNC1=O` [Example 32, 5-Chloro-N-({(5S)-3-[3-isopropyl-4-(2-oxotetrahydropyrimidin-1(2H)-yl)phenyl]-2-oxo-1,3-oxazolidin-5-yl}methyl)thiophene-2-carboxamide] are 0.151 µM and 0.07 µM.

Regarding `CC(=O)COc1cccn(-c2ccc(N3C[C@H](CNC(=O)c4ccc(Cl)s4)OC3=O)cc2C)c1=O` [Example 7, 5-Chloro-N-[((5S)-3-{3-methyl-4-[2-oxo-3-(2-oxopropoxy)pyridin-1(2H)-yl]phenyl}-2-oxo-1,3-oxazolidin-5-yl)methyl]thiophene-2-carboxamide], the IC50 came out at 0.277 µM in assay [1] and 0.206 µM in assay [2]. For `CCCc1cc(N2C[C@H](CNC(=O)c3ccc(Cl)s3)OC2=O)ccc1-n1ccccc1=O` [Example 19], in that order: 0.008 µM and 0.361 µM. Turning to `COCc1cc(N2C[C@H](CNC(=O)c3ccc(Cl)s3)OC2=O)ccc1N1CCCCC1=O` [Example 27, 5-Chloro-N-({(5S)-3-[3-(methoxymethyl)-4-(2-oxopiperidin-1-yl)phenyl]-2-oxo-1,3-oxazolidin-5-yl}methyl)thiophene-2-carboxamide], the IC50 was 0.054 µM in assay [1] and 0.039 µM in assay [2]. The corresponding values for `CCOc1cccn(-c2ccc(N3C[C@H](CNC(=O)c4ccc(Cl)s4)OC3=O)cc2C)c1=O` [Example 4, 5-Chloro-N-({(5S)-3-[4-(3-ethoxy-2-oxopyridin-1(2H)-yl)-3-methylphenyl]-2-oxo-1,3-oxazolidin-5-yl}methyl)thiophene-2-carboxamide] are 0.286 µM and 0.201 µM. Regarding `Cc1cc(N2C[C@H](CNC(=O)c3ccc(Cl)s3)OC2=O)ccc1-n1cccc(OCC(C)(C)O)c1=O` [Example 9, 5-Chloro-N-[((5S)-3-{4-[3-(2-hydroxy-2-methylpropoxy)-2-oxopyridin-1(2H)-yl]-3-methylphenyl}-2-oxo-1,3-oxazolidin-5-yl)methyl]thiophene-2-carboxamide], the IC50 in assay [1] was 0.247 µM; in assay [2] it was 0.149 µM.

(Values after patent US8198267B2, “Substituted oxazolidinones and their use” (Bayer Intellectual Property GmbH, priority 2007, dated 2012).)
